# In paper PMC5980259, “GI‐530159, a novel, selective, mechanosensitive two‐pore‐domain potassium (K2P) channel opener, reduces rat dorsal root ganglion neuron excitability” (British Journal of Pharmacology, 2017):
# Values joined by “and” are separate entries in the source; they are usually repeats but may differ in a detail not shown here. Equal entries are not always repeated.
# Key:
# Format in all cases: cell-based
# [1] = tested on: small rat DRG neurons; assay: Current-clamp recordings from small rat DRG neurones in short-term culture; conditions: 1 μM
# Description: Acutely dissociated rat DRG cells were obtained according to a previously described protocol (Passmore, 2005). All animal care and experimental procedures complied with guidelines and were approved by the Pfizer Neusentis Institutional Animal Use and Care Committee. Animal studies are reported in compliance with the ARRIVE guidelines (Kilkenny et al., 2010; McGrath and Lilley, 2015).Cells were plated on coated coverslips (poly‐D‐lysine/laminin, BD Biosciences, San Jose, CA, USA) prior to patching on the same day. Cells were perfused with an extracellular solution containing (in mM): 135 NaCl, 4.7 KCl, 1 CaCl2, 1 MgCl2, 10 HEPES and 10 glucose, pH 7.4, with NaOH (310 mOsmol·L^−1). Pipette solution contained (in mM): 130 KCl, 1 MgCl2, 5 MgATP, 10 HEPES and 5 EGTA, pH adjusted to 7.3 with KOH (290 mOsmol·L^−1). For whole‐cell recordings, currents were filtered at 2 kHz and sampled at 5 kHz. Series resistance was compensated for by up to 80%. For current‐clamp recordings, action potential firing and resting membrane potential (RMP) were recorded from small cells ([…]). GI‐530159 was dissolved in 0.3% DMSO as 10 mM stock and applied in the vicinity of cells using a gravity fed perfusion system (MSC‐200, Bio‐Logic SAS, Claix, France).
# [2] = molecular target: T1, hTREK1 (Homo sapiens, UniProt O95069); assay: Manual whole-cell patch clamp, HEK293 cells stably expressing TREK1; design: expressed in transfected cells
# T1 sequence (O95069 1-426): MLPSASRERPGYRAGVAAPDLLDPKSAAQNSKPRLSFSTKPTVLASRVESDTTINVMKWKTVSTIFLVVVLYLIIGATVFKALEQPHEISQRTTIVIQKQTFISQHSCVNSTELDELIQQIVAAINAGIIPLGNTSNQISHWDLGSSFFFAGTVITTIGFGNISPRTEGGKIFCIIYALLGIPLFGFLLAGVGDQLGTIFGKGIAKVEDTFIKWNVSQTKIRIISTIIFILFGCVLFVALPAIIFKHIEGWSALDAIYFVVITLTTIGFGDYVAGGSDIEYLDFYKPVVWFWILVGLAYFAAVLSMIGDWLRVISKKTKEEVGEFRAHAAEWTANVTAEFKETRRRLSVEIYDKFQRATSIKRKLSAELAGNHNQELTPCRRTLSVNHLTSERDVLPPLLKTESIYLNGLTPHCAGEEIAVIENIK
# Description: Electrophysiological studies were performed on CHO or HEK293 cells, stably expressing human recombinant TREK1; tsA‐201 cells transiently transfected with human recombinant K2P channels and acutely dissociated rat DRG cells, all at room temperature (22–24°C).
# Studies were performed using a conventional patch clamp and Multiclamp 700B and pCLAMP software (Molecular Devices, Sunnyvale, CA, USA). For conventional manual patch clamp, glass coverslips containing HEK293 cells were perfused with an extracellular solution (ECS) containing (in mM): 135 NaCl, 4.7 KCl, 1 CaCl2, 1 MgCl2, 10 HEPES and 10 glucose, pH 7.4, with NaOH (310 mOsmol·L^−1). The patch pipette was filled with (in mM): 130 KCl, 1 MgCl2, 5 MgATP, 10 HEPES and 10 BAPTA, pH adjusted to 7.3 with KOH (290 mOsmol·L^−1).
# [3] = molecular target: TASK3 (K2P9.1) (Homo sapiens, UniProt Q9NPC2); assay: Activated current, TASK3 channels; conditions: 1 μM; n = 5
# [4] = molecular target: T2, hTRAAK (Homo sapiens, UniProt Q9NYG8); assay: Whole-cell patch clamp, transiently transfected tsA-201 cells, TRAAK
# T2 construct: expressed in transfected cells; host or cells: tsA-201, transient, pcDNA3.1 vector
# T2 sequence (Q9NYG8 1-393): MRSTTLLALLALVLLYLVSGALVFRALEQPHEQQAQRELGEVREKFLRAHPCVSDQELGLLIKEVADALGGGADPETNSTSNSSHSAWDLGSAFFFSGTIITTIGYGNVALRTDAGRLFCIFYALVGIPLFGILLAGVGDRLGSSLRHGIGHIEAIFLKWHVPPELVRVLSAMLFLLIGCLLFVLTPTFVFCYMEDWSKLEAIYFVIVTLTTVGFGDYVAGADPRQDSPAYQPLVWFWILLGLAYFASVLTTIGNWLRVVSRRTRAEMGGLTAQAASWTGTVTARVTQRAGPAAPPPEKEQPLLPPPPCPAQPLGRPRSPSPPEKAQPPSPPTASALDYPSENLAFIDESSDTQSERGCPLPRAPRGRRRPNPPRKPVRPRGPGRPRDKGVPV
# Description: Recordings of hTREK1, hTREK1∆N, hTREK2, hTRAAK and […] currents from transiently transfected tsA‐201 cells were performed using methods as described in Veale and Mathie (2016). Briefly, the pcDNA3.1 vector was cloned with the gene of interest, and these vectors and a similar vector containing GFP were incorporated into the tsA201 cells (0.5 μg per well) using the calcium phosphate method. The cells were incubated for 6–12 h at 37°C in […] and 5% carbon dioxide. Cells were then washed using a PBS solution and used for experiments after 24 h.
# Currents were recorded using whole‐cell patch‐clamp using an Axopatch 1D amplifier. Cells were placed in a recording chamber filled with an external medium composed of 145 mM, NaCl, 2.5 mM KCl, 3 mM MgCl2, 1 mM CaCl2 and 10 mM HEPES (pH to 7.4, using NaOH). The internal medium used in the glass pipette comprised 150 mM KCl, 3 mM MgCl2, 5 mM (or 0.1 mM) EGTA and 10 mM HEPES (pH to 7.4, using KOH). GI‐530159 was applied by bath perfusion. Currents were recorded and analysed using pCLAMP 10.2 software Microsoft Excel. The voltage protocol used for recording current through K2P channels was as previously described (Veale and Mathie, 2016). For analysis, we measured the current difference between the −80 and −40 mV steps.
# [5] = molecular target: Kv7.1 (Homo sapiens, UniProt P51787); assay: Rb+ efflux assay, Kv7.1
# [6] = 15 pA depolarizing current injection, of the 14 cells tested
# Sequence of TASK3 (K2P9.1) (Q9NPC2 whole entry, species assumed): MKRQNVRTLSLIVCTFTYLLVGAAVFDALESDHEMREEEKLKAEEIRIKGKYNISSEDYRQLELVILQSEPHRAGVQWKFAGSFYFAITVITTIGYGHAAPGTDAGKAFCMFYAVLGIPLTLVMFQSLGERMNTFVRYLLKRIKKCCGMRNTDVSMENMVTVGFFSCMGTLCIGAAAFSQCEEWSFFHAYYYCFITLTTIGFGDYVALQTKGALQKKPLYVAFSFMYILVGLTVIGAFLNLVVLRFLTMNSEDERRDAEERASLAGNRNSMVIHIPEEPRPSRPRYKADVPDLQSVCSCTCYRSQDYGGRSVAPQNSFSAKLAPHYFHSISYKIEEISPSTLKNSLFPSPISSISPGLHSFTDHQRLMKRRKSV
smiles,measurement,setting,value
"Nc1ccc(Oc2ccc(C(c3ccc(Oc4ccc(N)cc4)cc3)(C(F)(F)F)C(F)(F)F)cc2)cc1 [GI‐530159, 4,4′‐(hexafluoroisopropylidene)bis(p‐phenyleneoxy)dianiline]",share of cells with firing frequency reduced or abolished,[1]; 14 cells tested,57%
same,share of neurons with firing unaltered / unaffected,[1]; 14 cells tested,43%
same,cells with a reduction in firing frequency,[1]; [6],two
same,cells with complete abolition in firing frequency,[1]; [6],six
same,neurons with firing unaltered,[1]; [6],six
same,"resting membrane potential after application, averaged per rat","[1]; n = 7 rats, from −54.0 ± 2.0 mV, P < 0.05",−57.8 ± 1.4 mV
same,resting membrane potential after application,"[1]; n = 14 individual neurons, from −53.6 ± 1.5 mV, P < 0.05",−57.1 ± 1.5 mV
same,TREK1 current measured at 0 mV,"[2]; 1 μM, HEK293, 116 ± 15 pA in presence of DMSO, n = 6, P < 0.05",4090 ± 878 pA
same,"activated current, TREK1 channels","[2]; 1 μM, n = 6",4.0 ± 0.9 nA
same,reversal potential of compound-enhanced current,"[2]; 1 μM, voltage ramp −100 to +80 mV",~−80 mV
same,enhanced current at maximal activation,"[2]; 30 μM, measured at 0 mV, n = 5",6.6 ± 0.9 nA
same,EC50,"[2]; HEK293, 0.1 to 30 μM, measured at 0 mV, read-out: EC50 for TREK1 current enhancement",890 nM and 900 nM
same,"activated current, TASK3 channels",[3],0.02 ± 0.005 nA
same,enhancement of TRAAK current,"[4]; 1 μM, tsA-201, n = 7",2 ± 10%
same,effect on TRAAK channels,[4]; 10 μM,no detectable effect
same,activator effect on Kv7.1,[5],no activator effects
